Measured values published in patent publication US20260374782A1, “NEW COMPOUNDS, PROCESSES FOR PREPARING THE SAME AND THEIR USE AS DRUGS” (B&A ONCOMEDICAL, priority 2022, published 2026).

Biological target: T1, NKCC1 (Homo sapiens, UniProt P55011)
T1 construct: endogenous in cells; host or cells: native HEK293 cells
T1 sequence (P55011 1-1212): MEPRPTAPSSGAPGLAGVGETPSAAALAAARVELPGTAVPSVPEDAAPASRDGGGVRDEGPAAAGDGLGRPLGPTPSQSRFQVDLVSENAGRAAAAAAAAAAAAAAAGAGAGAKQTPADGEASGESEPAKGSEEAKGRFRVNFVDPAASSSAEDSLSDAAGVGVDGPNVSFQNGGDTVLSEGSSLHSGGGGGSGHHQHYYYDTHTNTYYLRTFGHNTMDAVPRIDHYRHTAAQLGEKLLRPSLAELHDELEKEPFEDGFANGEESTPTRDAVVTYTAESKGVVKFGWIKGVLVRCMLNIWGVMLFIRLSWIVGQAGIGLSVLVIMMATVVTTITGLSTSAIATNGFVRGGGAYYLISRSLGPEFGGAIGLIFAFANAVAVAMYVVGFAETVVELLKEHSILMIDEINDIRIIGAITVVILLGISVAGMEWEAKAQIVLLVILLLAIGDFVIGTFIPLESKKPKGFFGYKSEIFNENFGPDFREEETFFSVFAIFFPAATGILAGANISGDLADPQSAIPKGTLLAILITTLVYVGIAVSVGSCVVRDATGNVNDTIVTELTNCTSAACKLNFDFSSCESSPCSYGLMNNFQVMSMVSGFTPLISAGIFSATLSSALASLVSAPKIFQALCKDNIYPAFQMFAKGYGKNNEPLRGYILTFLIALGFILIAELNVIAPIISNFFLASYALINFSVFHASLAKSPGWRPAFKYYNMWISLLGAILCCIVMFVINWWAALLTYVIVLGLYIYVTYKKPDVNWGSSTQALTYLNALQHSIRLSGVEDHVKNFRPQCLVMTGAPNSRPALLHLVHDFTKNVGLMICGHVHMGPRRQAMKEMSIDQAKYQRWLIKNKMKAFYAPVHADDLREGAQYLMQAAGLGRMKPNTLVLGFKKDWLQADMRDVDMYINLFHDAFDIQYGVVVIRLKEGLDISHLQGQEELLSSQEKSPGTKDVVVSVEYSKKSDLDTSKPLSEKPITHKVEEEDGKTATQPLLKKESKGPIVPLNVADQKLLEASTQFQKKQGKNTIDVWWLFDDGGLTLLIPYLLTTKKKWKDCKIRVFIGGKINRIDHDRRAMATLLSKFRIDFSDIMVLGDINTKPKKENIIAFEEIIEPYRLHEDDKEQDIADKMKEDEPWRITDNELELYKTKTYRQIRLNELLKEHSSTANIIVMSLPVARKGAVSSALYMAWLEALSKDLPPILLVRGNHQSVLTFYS
Assay: NKCC1-mediated K+ influx (83Rb tracer uptake) in native HEK293 cells, hypertonic saline, 100 μM ouabain
Assay type: cell-based
Conditions: HEK293, no drug = 1000, 20 μM bumetanide = 0; for inhibition at 2 µM: read-out: NKCC1 mediated flux inhibition at 2 μM (%); for inhibition at 20 µM: read-out: NKCC1 mediated flux inhibition at 20 μM (%)
Description: The compounds of the invention have been tested for evaluating their potency in inhibiting the NKCC1 channel. The test used is a cellular assay expressing the NKCC1 channel: HEK293 cells are human cells derived from embryonic kidney. The inhibitory activity of the compounds has been evaluated in measuring the modification of the potassium flux at 2 concentrations, as described hereafter in the biological protocol.
HEK293 cells are human cells derived from embryonic kidney. They express at their plasma membranes proteins that transport potassium (K^+). Among these proteins is the Na—K-2Cl cotransporter or NKCC1. This transporter contributes to 40-50% of K^+ influx into the cells. The remaining of K^+ transport is mediated by the Na^+/K^+-ATPase (also known as Na^+ pump or Na^+/K^+ pump), which also contributes some 40-50% of the influx basal flux of 5-10%, which is mainly due to K^+ channels (FIG. 1A). Thus, the HEK293 cell in culture is an ideal model to study the function of NKCC1 and test compounds that inhibits its transport.
The assay to measure NKCC1 function was optimized to obtain the next signal to noise ratio: • a. A slightly hypertonic saline was used to stimulate NKCC1 function. […] By consistent use of this simple manipulation, the NKCC1 signal was enhanced. • b. Ouabain, an inhibitor of the Na^+/K^+ pump, was used at 100 μM. […] A radioactive isotope was used to trace the inward movement of K^+ into the cell (influx). This allowed for highly precise measurements of K^+ influx. Because radioactive isotopes of K^+ had very short half-lives, radioactive isotopes of Rb^+ were used. Rubidium was a monovalent cation which was readily transporter at the K^+ binding site by many transporters and channels. Rb^+ was a congener of K^+, being transported undistinguishably from K^+. ^83Rb (half-life of 83 days) was used since ^86Rb (half-life of 19.6 days) is no longer commercially available. The ^83Rb isotope was used as a tracer, i.e. at a very low amounts to trace the movement of K^+.
K^+ influx measured in native HEK293 was in the range of 7000-9000 pmoles K^+ per mg protein per min. In the presence of 20 μM Ref 1, the flux was reduced to 600-900 pmoles K^+ per mg protein per min. Thus, there was a very solid dynamic range. In each experiment, the flux without Ref 1 was set at 1000 (equivalent to 100.0%) and the flux with 20 μM bumetanide was set at 0 (equivalent to 0%).
For the flux experiments, 35-mm culture dishes were coated with 0.1 mg/mL poly-L-lysine and placed in large 20×20 [square] dishes. For convenience, the poly-L-lysine was placed in the dishes the day before the experiment. Before plating the cells, the poly-L-lysine was aspirated, and each dish washed twice with 1 mL sterile water. Cells from 3 confluent 10-cm dishes were detached with trypsin and resuspended into 49 mL complete medium. Cells (2 mL/35-mm dish) were plated in 24 dishes and allowed to attach for at least 2 hours prior to the flux. This setup allowed the measurement of 8 conditions in triplicates. For the flux, culture medium was aspirated and replaced with 1 mL saline for a preincubation period of 15 min. The saline was aspirated and replaced with 1 mL identical saline containing 0.25 μCi/mL 83Rb for 15 min. Following the uptake period, the radioactive solution was aspirated, and the cells washed 3 times with ice-cold saline. Cells were then lyzed with 500 μl 0.25N NaOH for 1 hour, neutralized with 250 μL glacial acetic acid and 300 μL and 30 μL aliquots were used for μ-scintillation counting and protein assays, respectively. Two 5 μL of each flux solution was used to determine cpm and relate those cpm to nmoles K^+. Potassium influx was expressed in nmoles K^+ per mg protein per min. Note that within an experiment, groups of 3 dishes were separated 2 min apart for easy handling. Also note that since all dishes were plated with a homogeneous cell suspension, and all dishes were identical, the protein content was measured from a subset of dishes. […]

Compound	inhibition at 2 µM [%]	inhibition at 20 µM [%]
CCCCNc1cc(C(=O)OC)cc(S(=N)(=O)NCC2CCN(C(C)=O)CC2)c1Oc1ccccc1 (centres unmarked) [Compound 49, methyl 3-[[(1-acetyl-4-piperidyl)methylamino]sulfonimidoyl]-5-(butylamino)-4-phenoxy-benzoate]	30 to 50	10 to 30
CCCCNc1cc(C(=O)OC)cc(S(=N)(=O)NCC2CCN(C)CC2)c1Oc1ccccc1 (centres unmarked) [Compound 50, methyl 3-(butylamino)-5-[[(1-methyl-4-piperidyl)methylamino]sulfonimidoyl]-4-phenoxy-benzoate]	30 to 50	30 to 50
CCCCNc1cc(C(=O)O)cc(S(=N)(=O)N(C)C)c1Oc1ccccc1 (centres unmarked) [Compound 52, 3-(butylamino)-5-(dimethylaminosulfonimidoyl)-4-phenoxy-benzoic acid]	30 to 50	50 to 75
CCCCNc1cc(C(=O)O)cc(S(=N)(=O)N2CCCC2)c1Oc1ccccc1 (centres unmarked) [Compound 53, 3-(butylamino)-4-phenoxy-5-(pyrrolidin-1-ylsulfonimidoyl)benzoic acid]	30 to 50	≥ 75
CCCCNc1cc(C(=O)O)cc(S(=N)(=O)N2CCCCC2)c1Oc1ccccc1 (centres unmarked) [Compound 54, 3-(butylamino)-4-phenoxy-5-(1-piperidylsulfonimidoyl)benzoic acid]	30 to 50	≥ 75
CCCCNc1cc(C(=O)O)cc(S(=N)(=O)N(C)CC)c1Oc1ccccc1 (centres unmarked) [Compound 55, 3-(butylamino)-5-[[ethyl(methyl)amino]sulfonimidoyl]-4-phenoxy-benzoic acid]		50 to 75
CCCCNc1cc(C(=O)O)cc(S(=N)(=O)N2CCOCC2)c1Oc1ccccc1 (centres unmarked) [Compound 56, 3-(butylamino)-5-(morpholinosulfonimidoyl)-4-phenoxy-benzoic acid]		30 to 50
CCCCNc1cc(C(=O)O)cc(S(=N)(=O)NCc2ccccc2)c1Oc1ccccc1 (centres unmarked) [Compound 58, 3-[(benzylamino)sulfonimidoyl]-5-(butylamino)-4-phenoxy-benzoic acid]	30 to 50	≥ 75
CCCCNc1cc(C(=O)O)cc(S(=N)(=O)NCCOC)c1Oc1ccccc1 (centres unmarked) [Compound 59, 3-(butylamino)-5-[(2-methoxyethylamino)sulfonimidoyl]-4-phenoxy-benzoic acid]		50 to 75
CCCCNc1cc(C(=O)O)cc(S(=N)(=O)NC2CC2)c1Oc1ccccc1 (centres unmarked) [Compound 60, 3-(butylamino)-5-[(cyclopropylamino)sulfonimidoyl]-4-phenoxy-benzoic acid]	10 to 30	50 to 75
CCCCNc1cc(C(=O)O)cc(S(=N)(=O)N2CCCCCC2)c1Oc1ccccc1 (centres unmarked) [Compound 61, 3-(azepan-1-ylsulfonimidoyl)-5-(butylamino)-4-phenoxy-benzoic acid]	30 to 50	≥ 75
CCCCNc1cc(C(=O)O)cc(S(=N)(=O)NCC2CCCCC2)c1Oc1ccccc1 (centres unmarked) [Compound 62, 3-(butylamino)-5-[(cyclohexylmethylamino)sulfonimidoyl]-4-phenoxy-benzoic acid]	10 to 30	≥ 75
CCCCNc1cc(C(=O)O)cc(S(=N)(=O)NCC2CCOCC2)c1Oc1ccccc1 (centres unmarked) [Compound 63, 3-(butylamino)-4-phenoxy-5-[(tetrahydropyran-4-ylmethylamino)sulfonimidoyl]benzoic acid]		30 to 50
CCCCNc1cc(C(=O)O)cc(S(=N)(=O)Nc2cccnc2)c1Oc1ccccc1 (centres unmarked) [Compound 64, 3-(butylamino)-4-phenoxy-5-[(3-pyridylamino)sulfonimidoyl]benzoic acid]	50 to 75	≥ 75
CCCCNc1cc(C(=O)O)cc(S(=N)(=O)Nc2cccc(OC)c2)c1Oc1ccccc1 (centres unmarked) [Compound 65, 3-(butylamino)-5-[(3-methoxyanilino)sulfonimidoyl]-4-phenoxy-benzoic acid]	50 to 75	≥ 75
CCCCNc1cc(C(=O)O)cc(S(=N)(=O)N2CCC(c3ccccc3)CC2)c1Oc1ccccc1 (centres unmarked) [Compound 66, 3-(butylamino)-4-phenoxy-5-[(4-phenyl-1-piperidyl)sulfonimidoyl]benzoic acid]	30 to 50	≥ 75
CCCCNc1cc(C(=O)O)cc(S(=N)(=O)Nc2ccn(C)n2)c1Oc1ccccc1 (centres unmarked) [Compound 67, 3-(butylamino)-5-[[(1-methylpyrazol-3-yl)amino]sulfonimidoyl]-4-phenoxy-benzoic acid]	50 to 75	≥ 75
CCCCNc1cc(C(=O)O)cc(S(=N)(=O)NCc2cncnc2)c1Oc1ccccc1 (centres unmarked) [Compound 68, 3-(butylamino)-4-phenoxy-5-[(pyrimidin-5-ylmethylamino)sulfonimidoyl]benzoic acid]	50 to 75	≥ 75
CCCCNc1cc(C(=O)O)cc(S(=N)(=O)N2CC3CCC(C2)O3)c1Oc1ccccc1 (centres unmarked) [Compound 69, 3-(butylamino)-5-(8-oxa-3-azabicyclo[3.2.1]octan-3-ylsulfonimidoyl)-4-phenoxy-benzoic acid]	50 to 75	50 to 75
CCCCNc1cc(C(=O)O)cc(S(=N)(=O)Nc2cccc(Cl)c2)c1Oc1ccccc1 (centres unmarked) [Compound 70, 3-(butylamino)-5-[(3-chloroanilino)sulfonimidoyl]-4-phenoxy-benzoic acid]	≥ 75	≥ 75
CCCCNc1cc(C(=O)O)cc(S(=N)(=O)NCc2cccc(Cl)c2)c1Oc1ccccc1 (centres unmarked) [Compound 71, 3-(butylamino)-5-[[(3-chlorophenyl)methylamino]sulfonimidoyl]-4-phenoxy-benzoic acid]	≥ 75	≥ 75
